Results taken from patent US11560370B1, “5-membered heteroaryl carboxamide compounds for treatment of HBV” (Assembly Biosciences, Inc., priority 2018, dated 2023).
Like-named read-outs stand apart in the source and are kept apart here.

System: HBV
Assay: Viral production from HepAD38 cells, viral load by qPCR of HBV core sequence
Format: cell-based
Details: 5 days, supernatant HBV DNA by qPCR, read-out: Viral Load EC50 Activity range
Protocol: Assay Measuring Activity of Test Compounds on Viral Production from HepAD38 Cells
HepAD38 cells grown in a T-150 flask (Corning, cat #: 430825) with Growth Medium (DMEM/F12 (1:1) (Hyclone, cat #: SH30023.02), 1× Pen/Strep (Invitrogen, cat #: 15140-122), 10% FBS (Tissue Culture Biologics, cat #: 101), 250 μg/mL G418 (Alfa Aesar, cat #: J62671), 1 μg/mL Tetracycline (Teknova, cat #: T3320)) were detached with 0.25% trypsin-EDTA to (Invitrogen, cat #: 25200-056). Tetracycline-free treatment medium (15 mL DMEM/F12 (1:1) 1× Pen/step, with 2% FBS, Tet-system approved (Clontech, cat #: 631106) were then added to mix, transferred into a 50 ml conical tube (Falcon, cat #: 21008-918,) and spun at 1300 rpm for 5 min. Pelleted cells were then re-suspended/washed with 50 mL of 1×DPBS (Invitrogen, cat #: 14190-136) 2 times and 50 mL treatment medium twice. HepAD38 cells were then re-suspended with 10 mL of treatment medium, syringed and counted. Wells of 96-well clear bottom TC plate (Corning, cat #: 3904,) were seeded at 50,000 cells/well in 180 μL of treatment medium, and 20 μL of either 10% DMSO (Sigma, cat #: D4540) as controls or a 10× solution of test compounds in 10% DMSO in treatment media was added for a final compound concentration starting at 10 μM, and plates were incubated in 5% CO2 incubator at 37° C. for 5 days.
Subsequently viral load production was assayed by quantitative PCR (qPCR) of the HBV core sequence. PCR reaction mixture containing forward primers HBV-f 5′-CTGTGCCTTGGGTGGCTTT-3′ (IDT DNA), Reverse primers HBV-r 5′-[…]-3′ (IDT DNA), Fluorescent TaqMan™ Probes HBV-probe 5′-FAM/AGCTCCAAA/ZEN/[…]/3IABkFQ-3′ (IDT DNA), 10 μL/well of PerfeCTa® qPCR ToughMix® (Quanta Biosciences, Cat #: 95114-05K), and 6 μL/well of DEPC water (Alfa Aesar, cat #: J62087) was prepared. […] of supernatant was added to 16 μL of the reaction mixture in a qPCR plate (Applied Biosytems, Cat #: 4309849), sealed with a film (Applied Biosystems, Cat #: 4311971), centrifuged for a few seconds, and subsequently run on an Applied Biosystems VIIA7. The PCR mixture was incubated at 45° C. for 5 min, then 95° C. for 10 min, followed by 40 cycles of 10 seconds at 95° C. and 20 seconds at 60° C. Viral load was quantified against known HBV DNA standards by using ViiA™ 7 Software. Viral load in the supernatant from wells with treated cells were compared against viral load in supernatant from DMSO control wells (>3 per plate). Cell viability assay was performed with CellTiter-Glo Luminescent Cell Viability Assay (Promega, cat #: G7573) with modification. Mixed appropriate amount of CellTiter-Glo (CTG) 1×DPBS in a 1:1 ratio, added 100 uL of the mixture to each well followed completely removal of all supernatant in each well without touching cell surface. Incubated the plate at room temperature for 10 min on an orbital shaker, and then read the plate with a plate reader (TECAN M1000 or Envision). EC50 or CC50 values were calculated through curve-fitting of the four-parameter nonlinear-logistic-regression model (GraphPad Prism or Dotmatics). CC50 values were all >10 μM.

[1] = Hepatitis B virus, HePAD38, 120 h

Structure (SMILES)	EC50 [1]	EC50
COc1ccc([C@H]2CC[C@H](c3nn(C)c(N)c3C(=O)Nc3ccc(F)c(Cl)c3)C2)cc1 [AIA-003-B, 5-amino-N-(3-chloro-4-fluorophenyl)-3-((1S,3S)-3-(4-methoxyphenyl)cyclopentyl)-1-methyl-1H-pyrazole-4-carboxamide]	< 100 nM	
COc1ccc([C@@H]2CC[C@H](c3nn(C)c(N)c3C(=O)Nc3ccc(F)c(Cl)c3)C2)cc1 [AIA-003-C, 5-Amino-N-(3-chloro-4-fluorophenyl)-3-((1S,3R)-3-(4-methoxyphenyl)cyclopentyl)-1-methyl-1H-pyrazole-4-carboxamide]	100 to 500 nM	
COc1ccc([C@@H]2CC[C@@H](c3nn(C)c(N)c3C(=O)Nc3ccc(F)c(Cl)c3)C2)cc1 [AIA-003-D, 5-amino-N-(3-chloro-4-fluorophenyl)-3-((1R,3R)-3-(4-methoxyphenyl)cyclopentyl)-1-methyl-1H-pyrazole-4-carboxamide]	< 100 nM	
Cn1nc(C2CC3CN(C(=O)OC(C)(C)C)CC3C2)c(C(=O)Nc2ccc(F)c(Cl)c2)c1N (stereo not shown) [AIA-005]		< 100 nM
Cn1nc(C2CC3CNCC3C2)c(C(=O)Nc2ccc(F)c(Cl)c2)c1N (stereo not shown) [AIA-006]		500 to 10000 nM
CC(=O)N1CC2CC(c3nn(C)c(N)c3C(=O)Nc3ccc(F)c(Cl)c3)CC2C1 (stereo not shown) [AIA-007]		< 100 nM
Cn1nc(C2CC3CC(C)(O)CC3C2)c(C(=O)Nc2ccc(F)c(Cl)c2)c1N (stereo not shown) [AIA-011, 5-Amino-N-(3-chloro-4-fluorophenyl)-3-(5-hydroxy-5-methyloctahydropentalen-2-yl)-1-methyl-1H-pyrazole-4-carboxamide]	< 100 nM	
CCN(CC)C1CC2CC(c3nn(C)c(N)c3C(=O)Nc3ccc(F)c(Cl)c3)CC2C1 (stereo not shown) [AIA-012, 5-Amino-N-(3-chloro-4-fluorophenyl)-3-(5-(diethylamino)octahydropentalen-2-yl)-1-methyl-1H-pyrazole-4-carboxamide]	100 to 500 nM	
Cn1nc(C2CC3CC(N4CCC4)CC3C2)c(C(=O)Nc2ccc(F)c(Cl)c2)c1N (stereo not shown) [AIA-013, 5-Amino-3-(5-(azetidin-1-yl)octahydropentalen-2-yl)-N-(3-chloro-4-fluorophenyl)-1-methyl-1H-pyrazole-4-carboxamide]	100 to 500 nM	
Cn1nc(C2CC3CC(C(=O)O)CC3C2)c(C(=O)Nc2ccc(F)c(Cl)c2)c1N (stereo not shown) [AIA-014]		< 100 nM
Cn1nc(C2CC3CC(C(N)=O)CC3C2)c(C(=O)Nc2ccc(F)c(Cl)c2)c1N (stereo not shown) [AIA-015]		< 100 nM
CNC(=O)C1CC2CC(c3nn(C)c(N)c3C(=O)Nc3ccc(F)c(Cl)c3)CC2C1 (stereo not shown) [AIA-016, 5-Amino-N-(3-chloro-4-fluorophenyl)-1-methyl-3-(5-(methylcarbamoyl)octahydropentalen-2-yl)-1H-pyrazole-4-carboxamide]	< 100 nM	
CCOC(=O)C=C1CC2CC(c3nn(C)c(N)c3C(=O)Nc3ccc(F)c(Cl)c3)CC2C1 (stereo not shown) [AIA-017]		< 100 nM
CCOC(=O)CC1CC2CC(c3nn(C)c(N)c3C(=O)Nc3ccc(F)c(Cl)c3)CC2C1 (stereo not shown) [AIA-018]		< 100 nM
Cn1nc(C2CC3CC(CCO)CC3C2)c(C(=O)Nc2ccc(F)c(Cl)c2)c1N (stereo not shown) [AIA-019]		< 100 nM
CN(C)C(=O)CC1CC2CC(c3nn(C)c(N)c3C(=O)Nc3ccc(F)c(Cl)c3)CC2C1 (stereo not shown) [AIA-020, 5-Amino-N-(3-chloro-4-fluorophenyl)-3-(5-(2-(dimethylamino)-2-oxoethyl)octahydropentalen-2-yl)-1-methyl-1H-pyrazole-4-carboxamide]	< 100 nM	
Cn1nc(C2CC3CC(CC(N)=O)CC3C2)c(C(=O)Nc2ccc(F)c(Cl)c2)c1N (stereo not shown) [AIA-021, 5-Amino-3-(5-(2-amino-2-oxoethyl)octahydropentalen-2-yl)-N-(3-chloro-4-fluorophenyl)-1-methyl-1H-pyrazole-4-carboxamide]	< 100 nM	
COC(=O)N1CC2CC(c3nn(C)c(N)c3C(=O)Nc3ccc(F)c(Cl)c3)CC2C1 (stereo not shown) [AIA-022]	< 100 nM	
CNC(=O)N1CC2CC(c3nn(C)c(N)c3C(=O)Nc3ccc(F)c(Cl)c3)CC2C1 (stereo not shown) [AIA-023, 5-(5-Amino-4-(3-chloro-4-fluorophenylcarbamoyl)-1-methyl-1H-pyrazol-3-yl)-N-methylhexahydrocyclopenta[c]pyrrole-2(1H)-carboxamide]	< 100 nM	

Structure (SMILES)	EC50 [1]	EC50
Cn1nc(C2CC3CN(S(C)(=O)=O)CC3C2)c(C(=O)Nc2ccc(F)c(Cl)c2)c1N (stereo not shown) [AIA-024, 5-Amino-N-(3-chloro-4-fluorophenyl)-1-methyl-3-(2-(methylsulfonyl)octa hydrocyclopenta[c]pyrrol-5-yl)-1H-pyrazole-4-carboxamide]	< 100 nM	
Cn1nc(C2CC3CN(C(=O)N4CCCC4)CC3C2)c(C(=O)Nc2ccc(F)c(Cl)c2)c1N (stereo not shown) [AIA-025, 5-Amino-N-(3-chloro-4-fluorophenyl)-1-methyl-3-(2-(pyrrolidine-1-carbonyl)octahydrocyclopenta[c]pyrrol-5-yl)-1H-pyrazole-4-carboxamide]	< 100 nM	
Cn1nc(C2CC3CC(C#N)CC3C2)c(C(=O)Nc2ccc(F)c(Cl)c2)c1N (stereo not shown) [AIA-027]		< 100 nM
CSC1CC2CC(c3nn(C)c(N)c3C(=O)Nc3ccc(F)c(Cl)c3)CC2C1 (stereo not shown) [AIA-028]		< 100 nM
CCSC1CC2CC(c3nn(C)c(N)c3C(=O)Nc3ccc(F)c(Cl)c3)CC2C1 (stereo not shown) [AIA-029, 5-Amino-N-(3-chloro-4-fluorophenyl)-3-(5-(ethylthio)octahydropentalen-2-yl)-1-methyl-1H-pyrazole-4-carboxamide]	< 100 nM	
Cn1nc(C2CC3CC(S(C)(=O)=O)CC3C2)c(C(=O)Nc2ccc(F)c(Cl)c2)c1N (stereo not shown) [AIA-030]		< 100 nM
CCS(=O)(=O)C1CC2CC(c3nn(C)c(N)c3C(=O)Nc3ccc(F)c(Cl)c3)CC2C1 (stereo not shown) [AIA-031, 5-Amino-N-(3-chloro-4-fluorophenyl)-3-(5-(ethylsulfonyl)octahydropentalen-2-yl)-1-methyl-1H-pyrazole-4-carboxamide]	< 100 nM	
Cn1nc([C@@H]2CC3C/C(=N/O)C[C@@H]3C2)c(C(=O)Nc2ccc(F)c(Cl)c2)c1N (stereo partly shown) [AIA-032-A]		< 100 nM
Cn1nc([C@H]2CC3C/C(=N/O)C[C@@H]3C2)c(C(=O)Nc2ccc(F)c(Cl)c2)c1N (stereo partly shown) [AIA-032-B]		< 100 nM
Cn1nc(C2CC3CNC(=O)CC3C2)c(C(=O)Nc2ccc(F)c(Cl)c2)c1N (stereo not shown) [AIA-033]		< 100 nM
Cn1nc(C2CC3CC(N4CCCC4)CC3C2)c(C(=O)Nc2ccc(F)c(Cl)c2)c1N (stereo not drawn) [AIA-040, 5-Amino-N-(3-chloro-4-fluorophenyl)-1-methyl-3-(5-(pyrrolidin-l-yl)octahydropentalen-2-yl)-1H-pyrazole-4-carboxamide]	< 100 nM	
Cn1nc(C2CC3CC(N4CCOCC4)CC3C2)c(C(=O)Nc2ccc(F)c(Cl)c2)c1N (stereo not shown) [AIA-041, 5-Amino-N-(3-chloro-4-fluorophenyl)-1-methyl-3-(5-morpholinooctahydropentalen-2-yl)-1H-pyrazole-4-carboxamide]	< 100 nM	
Cn1nc(C2CC3CC(NS(C)(=O)=O)CC3C2)c(C(=O)Nc2ccc(F)c(Cl)c2)c1N (stereo not shown) [AIA-042]		< 100 nM
CN(C1CC2CC(c3nn(C)c(N)c3C(=O)Nc3ccc(F)c(Cl)c3)CC2C1)S(C)(=O)=O (stereo not shown) [AIA-043]		< 100 nM
Cn1nc(C2CC3CC(N4CCCS4(=O)=O)CC3C2)c(C(=O)Nc2ccc(F)c(Cl)c2)c1N (stereo not shown) [AIA-044]		< 100 nM
Cn1nc(C2CC3CC(N4CCOC4=O)CC3C2)c(C(=O)Nc2ccc(F)c(Cl)c2)c1N (stereo not shown) [AIA-046]		< 100 nM
Cn1nc(C2CC3CC(N4CCNC4=O)CC3C2)c(C(=O)Nc2ccc(F)c(Cl)c2)c1N (stereo not shown) [AIA-047]		< 100 nM
Cn1nc(C2CC3CC(n4cccn4)CC3C2)c(C(=O)Nc2ccc(F)c(Cl)c2)c1N (stereo not shown) [AIA-048, 3-(5-(1H-Pyrazol-1-yl)octahydropentalen-2-yl)-5-amino-N-(3-chloro-4-fluorophenyl)-1-methyl-1H-pyrazole-4-carboxamide]	< 100 nM	
